Measured values published in ChEMBL document CHEMBL2440042, “Anti-proliferative activity of hydnocarpin, a natural lignan, is associated with the suppression of Wnt/β-catenin signaling pathway in colon cancer cells” (Bioorg Med Chem Lett, 2013).

Test system: SW480
Assay: Inhibition of Wnt/beta-catenin signaling pathway in human SW480 cells assessed as Axin2 protein expression at 5 uM after 12 hrs by Western blotting analysis relative to vehicle-treated control

COc1cc([C@H]2Oc3ccc(-c4cc(=O)c5c(O)cc(O)cc5o4)cc3O[C@@H]2CO)ccc1O (relative stereo)
fold change (FC): 1
